Experimental data reported in patent publication US12421254B2, “KRAS modulators and uses thereof” (Quanta Therapeutics, Inc., priority 2023, dated 2025).

Columns and labels:
[1] = target: GST-tagged KRAS-G12V (2-169) (Homo sapiens, UniProt P01116, G12V); assay: Nucleotide exchange assay (NEA), SOS-mediated, HTRF, KRAS G12V; type: biochemical; conditions: Table 4; IC50 extracted at 90 min; 80 nM SOS
Procedure, shortened: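 GST-KRAS-G12V (2-169), 0.25 nM, pre-incubated 1 h at RT with compound, then SOS1cat (564-1049) 80 nM and GTP-DY-647P1 150 nM added in HEPES pH 7.3 buffer with MgCl2 and DTT. HTRF via anti-GST Tb cryptate read over 90 min; IC50 from 4-parameter fit at 90 min, blanked to no-SOS reactions.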

[2] = target: GST-tagged KRAS-G12D (2-169) (Homo sapiens, UniProt P01116, G12D); assay: Nucleotide exchange assay (NEA), SOS-mediated, HTRF, KRAS G12D; type: biochemical; conditions: Table 4; IC50 extracted at 30 min; 20 nM SOScat; read-out: NEA G12D IC50
Procedure, shortened: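 Compound preincubated 1 h at RT with 0.25 nM GST-KRAS-G12D (2-169) and anti-GST Tb donor, then 20 nM SOS1cat (564-1049) and 150 nM GTP-DY-647P1 added; pH 7.3 HEPES buffer with MgCl2 and DTT. HTRF monitored at RT; % inhibition versus DMSO and no-SOS blank, 4-parameter IC50 taken at 30 min.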

Sequence of GST-tagged KRAS-G12V (2-169) (P01116 2-169 isoform P01116-2 G12V): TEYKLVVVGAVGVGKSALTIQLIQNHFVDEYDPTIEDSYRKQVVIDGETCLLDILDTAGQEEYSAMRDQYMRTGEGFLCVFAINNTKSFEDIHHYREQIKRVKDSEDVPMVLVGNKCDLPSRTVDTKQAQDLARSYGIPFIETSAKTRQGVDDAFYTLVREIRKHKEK
Sequence of GST-tagged KRAS-G12D (2-169) (P01116 2-169 isoform P01116-2 G12D): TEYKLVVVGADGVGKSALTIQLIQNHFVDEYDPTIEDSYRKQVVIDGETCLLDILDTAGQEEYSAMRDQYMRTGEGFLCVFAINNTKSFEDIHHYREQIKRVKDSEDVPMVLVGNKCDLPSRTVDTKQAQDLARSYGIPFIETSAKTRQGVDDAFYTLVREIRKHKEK

Compound | IC50 [1] [nM] | IC50 [2] [nM]
CN(Cc1ccn[nH]1)c1nc(OC[C@@]23CCCN2C[C@H](F)C3)nc(N2CC3(CCc4sc(N)c(C#N)c43)C2)n1 (racemic) [Compound 105, 2-amino-1′-[4-[methyl(1H-pyrazol-5-ylmethyl)amino]-6-[[rac-(2R,8S)-2-fluoro-1,2,3,5,6,7-hexahydropyrrolizin-8-yl]methoxy]-1,3,5-triazin-2-yl]spiro[5,6-dihydrocyclopenta[b]thiophene-4,3′-azetidine]-3-carbonitrile] | 100 to 1000 | 1000 to 20000
N#Cc1c(N)sc2c1C1(CC2)CN(c2nc(N[C@@H]3COC[C@@H]3O)nc(OC[C@@]34CCCN3C[C@H](F)C4)n2)C1 (racemic) [Compound 103, 2-amino-1′-[4-[[(2R,8S)-2-fluoro-1,2,3,5,6,7-hexahydropyrrolizin-8-yl]methoxy]-6-[[rac-(3R,4R)-4-hydroxytetrahydrofuran-3-yl]amino]-1,3,5-triazin-2-yl]spiro[5,6-dihydrocyclopenta[b]thiophene-4,3′-azetidine]-3-carbonitrile] | 100 to 1000 | 1000 to 20000
CC(c1c[nH]nc1Cl)N(C)c1nc(OC[C@@]23CCCN2C[C@H](F)C3)nc(N2CC3(CCc4sc(N)c(C#N)c43)C2)n1 (stereo partly drawn) [Compound 140, 2-amino-1′-[4-[1-(3-chloro-1H-pyrazol-4-yl)ethyl-methyl-amino]-6-[[(2R,8S)-2-fluoro-1,2,3,5,6,7-hexahydropyrrolizin-8-yl]methoxy]-1,3,5-triazin-2-yl]spiro[5,6-dihydrocyclopenta[b]thiophene-4,3′-azetidine]-3-carbonitrile] | 100 to 1000 | 1000 to 20000
C[C@]1(O)C[C@@H](O)CN(c2nc(OC[C@@]34CCCN3C[C@H](F)C4)nc(N3CC4(CCc5sc(N)c(C#N)c54)C3)n2)C1 [Compound 46, 2-amino-1′-[4-[(3S,5R)-3,5-dihydroxy-3-methyl-1-piperidyl]-6-[[(2R,8S)-2-fluoro-1,2,3,5,6,7-hexahydropyrrolizin-8-yl]methoxy]-1,3,5-triazin-2-yl]spiro[5,6-dihydrocyclopenta[b]thiophene-4,3′-azetidine]-3-carbonitrile] | 10 to 100 | 100 to 1000
N#Cc1c(N)sc2c1C1(CC2)CN(c2nc(OC[C@@]34CCCN3C[C@H](F)C4)nc(N3CCCC(C#N)C(O)C3)n2)C1 (mixture of isomers) [Compound 96, 2-amino-1′-[4-(4-cyano-3-hydroxy-azepan-1-yl)-6-[[rac-(2R,8S)-2-fluoro-1,2,3,5,6,7-hexahydropyrrolizin-8-yl]methoxy]-1,3,5-triazin-2-yl]spiro[5,6-dihydrocyclopenta[b]thiophene-4,3′-azetidine]-3-carbonitrile] | 10 to 100 | 100 to 1000
CC(Nc1nc(OC[C@@]23CCCN2C[C@H](F)C3)nc(N2CC3(CCc4sc(N)c(C#N)c43)C2)n1)c1cccnc1N (stereo partly drawn) [Compound 88, 2-amino-1′-[4-[1-(2-amino-3-pyridyl)ethylamino]-6-[[(2R,8S)-2-fluoro-1,2,3,5,6,7-hexahydropyrrolizin-8-yl]methoxy]-1,3,5-triazin-2-yl]spiro[5,6-dihydrocyclopenta[b]thiophene-4,3′-azetidine]-3-carbonitrile] | < 10 | 100 to 1000
N#Cc1c(N)sc2c1C1(CN(c3nc(OCC4(CN5CCOCC5)CC4)nc(N4CCNC[C@H]4CO)n3)C1)SC2 [Compound 186, (S)-2′-amino-1-(4-(2-(hydroxymethyl)piperazin-1-yl)-6-((1-(morpholinomethyl)cyclopropyl)methoxy)-1,3,5-triazin-2-yl)-6′H-spiro[azetidine-3,4′-thieno[3,4-b]thiophene]-3′-carbonitrile] | 10 to 100 | < 10
CN(c1nc(OC[C@@]23CCCN2C[C@H](F)C3)nc(N2CC3(CCc4sc(N)c(C#N)c43)C2)n1)[C@@H]1COC[C@H]1O (racemic) [Compound 90, 2-amino-1′-[4-[[(2R,8S)-2-fluoro-1,2,3,5,6,7-hexahydropyrrolizin-8-yl]methoxy]-6-[[rac-(3R,4S)-4-hydroxytetrahydrofuran-3-yl]-methyl-amino]-1,3,5-triazin-2-yl]spiro[5,6-dihydrocyclopenta[b]thiophene-4,3′-azetidine]-3-carbonitrile] | 100 to 1000 | 100 to 1000
CC(c1n[nH]cc1N)N(C)c1nc(OC[C@@]23CCCN2C[C@H](F)C3)nc(N2CC3(C2)SCc2sc(N)c(C#N)c23)n1 (stereo partly drawn) [Compound 192, 2-amino-1′-[4-[1-(4-amino-1H-pyrazol-3-yl)ethyl-methyl-amino]-6-[[(2R,8S)-2-fluoro-1,2,3,5,6,7-hexahydropyrrolizin-8-yl]methoxy]-1,3,5-triazin-2-yl]spiro[6H-thieno[2,3-c]thiophene-4,3′-azetidine]-3-carbonitrile] | 10 to 100 | 100 to 1000
N#Cc1c(N)sc2c1C1(CN(c3nc(OC[C@@]45CCCN4C[C@H](F)C5)nc(N(CC(N)=O)C4(C#N)CC4)n3)C1)SC2 [Compound 266, 2-[[4-(2-amino-3-cyano-spiro[6H-thieno[3,4-b]thiophene-4,3′-azetidine]-1′-yl)-6-[[(2R,8S)-2-fluoro-1,2,3,5,6,7-hexahydropyrrolizin-8-yl]methoxy]-1,3,5-triazin-2-yl]-(1-cyanocyclopropyl)amino]acetamide] | < 10 | < 10
N#Cc1c(N)sc2c1C1(CN(c3nc(OC[C@@]45CCCN4C[C@H](F)C5)nc(N4[C@@H]5CC[C@H]4C[C@H](O)C5)n3)C1)SC2 [Compound 275, 2-amino-1′-[4-[[(2R,8S)-2-fluoro-1,2,3,5,6,7-hexahydropyrrolizin-8-yl]methoxy]-6-[(1S,5R)-3-hydroxy-8-azabicyclo[3.2.1]octan-8-yl]-1,3,5-triazin-2-yl]spiro[6H-thieno[3,4-b]thiophene-4,3′-azetidine]-3-carbonitrile] | 100 to 1000 | 100 to 1000
N#Cc1c(N)sc2c1C1(CN(c3nc(OC[C@@]45CCCN4C[C@H](F)C5)nc(N4CC5CC(=O)CC(C4)N5)n3)C1)SC2 [Compound 277, 2-amino-1′-[4-[[(2R,8S)-2-fluoro-1,2,3,5,6,7-hexahydropyrrolizin-8-yl]methoxy]-6-(7-oxo-3,9-diazabicyclo[3.3.1]nonan-3-yl)-1,3,5-triazin-2-yl]spiro[6H-thieno[3,4-b]thiophene-4,3′-azetidine]-3-carbonitrile] | < 10 | 10 to 100
CC1(O)COCCN(c2nc(OC[C@@]34CCCN3C[C@H](F)C4)nc(N3CC4(C3)SCc3sc(N)c(C#N)c34)n2)C1 (stereo partly drawn) [Compound 268, 2-amino-1′-[4-[[(2R,8S)-2-fluoro-1,2,3,5,6,7-hexahydropyrrolizin-8-yl]methoxy]-6-(6-hydroxy-6-methyl-1,4-oxazepan-4-yl)-1,3,5-triazin-2-yl]spiro[6H-thieno[3,4-b]thiophene-4,3′-azetidine]-3-carbonitrile] | < 10 | < 10
N#Cc1c(N)sc2c1C1(CC2)CN(c2nc(OCC3(CN4CCOCC4)CC3)nc(OC3COCC3O)n2)C1 (racemic) [Compound 77, 2-amino-1′-[4-[rac-(3S,4S)-4-hydroxytetrahydrofuran-3-yl]oxy-6-[[1-(morpholinomethyl)cyclopropyl]methoxy]-1,3,5-triazin-2-yl]spiro[5,6-dihydrocyclopenta[b]thiophene-4,3′-azetidine]-3-carbonitrile; 2,2,2-trifluoroacetic acid] | 100 to 1000 | 1000 to 20000
C[C@H](c1cccnc1N)N(C)c1nc(OCC2(N(C)C)CC2)nc(N2CC3(C2)SCc2sc(N)c(C#N)c23)n1 [Compound 181, 2-amino-1′-[4-[[(1R)-1-(2-amino-3-pyridyl)ethyl]-methyl-amino]-6-[[1-(dimethylamino)cyclopropyl]methoxy]-1,3,5-triazin-2-yl]spiro[6H-thieno[2,3-c]thiophene-4,3′-azetidine]-3-carbonitrile] | 10 to 100 | 100 to 1000
C[C@H](c1cccnc1N)N(C)c1nc(OC[C@@]23CCCN2C[C@H](F)C3)nc(N2CCC3(CCCc4sc(N)c(C#N)c43)C2=O)n1 (single isomer, unassigned) [Compound 175A, (*)-2-amino-1′-(4-(((R)-1-(2-aminopyridin-3-yl)ethyl)(methyl)amino)-6-(((2R,7aS)-2-fluorotetrahydro-1H-pyrrolizin-7a(5H)-yl)methoxy)-1,3,5-triazin-2-yl)-2′-oxo-6,7-dihydro-5H-spiro[benzo[b]thiophene-4,3′-pyrrolidine]-3-carbonitrile] | < 10 | 10 to 100
N#Cc1c(N)sc2c1C1(CC2)CN(c2nc(OCC3(CN4CCOCC4)CC3)nc(N3CCCC(O)(CO)C3)n2)C1 (stereo not drawn) [Compound 95, 2-amino-1′-[4-[3-hydroxy-3-(hydroxymethyl)-1-piperidyl]-6-[[1-(morpholinomethyl)cyclopropyl]methoxy]-1,3,5-triazin-2-yl]spiro[5,6-dihydrocyclopenta[b]thiophene-4,3′-azetidine]-3-carbonitrile] | 10 to 100 | 10 to 100
CCN(c1nc(OC[C@@]23CCCN2C[C@H](F)C3)nc(N2CC3(C2)SCc2sc(N)c(C#N)c23)n1)C(C)c1cccnc1N (stereo partly drawn) [Compound 144, 2-amino-1′-[4-[1-(2-amino-3-pyridyl)ethyl-ethyl-amino]-6-[[(2R,8S)-2-fluoro-1,2,3,5,6,7-hexahydropyrrolizin-8-yl]methoxy]-1,3,5-triazin-2-yl]spiro[6H-thieno[3,4-b]thiophene-4,3′-azetidine]-3-carbonitrile] | < 10 | < 10
